For series [1], the system named is Micrococcus luteus ATCC 10240. As to the kind of experiment: Broth microdilution, M. luteus ATCC 10240. Type of series: cell-based. As to conditions: Ml 10240. In outline:
(§1)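 MIC: A570 after 18 ± 2 h, 35 ± 2 °C. Medium: MH broth (bacterium) or MH + 2% glucose (yeasts). Serial 2-fold dilutions of compound, top solution 1000 µg/mL. Inoculum: 0.5 McFarland suspension diluted 10×. MBC/MFC: subculture onto MHA or MHA + 2% glc, 99.9% growth inhibition.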

Series [2] relates to Staphylococcus aureus ATCC 43300 methicillin-resistant MRSA. Description: Broth microdilution, S. aureus ATCC 43300 MRSA. Type of series: cell-based. The following applies: Sa 43300 MRSA. In outline:
as §1

Series [3] has as its system Candida glabrata ATCC 15126. Description: Broth microdilution, C. glabrata ATCC 15126. Type of series: cell-based. The following applies: Cg 15126. The method in brief: as §1
In series [4] the test system is Candida glabrata ATCC 90030. As to the kind of experiment: Broth microdilution, C. glabrata ATCC 90030. Type of series: cell-based. As to conditions: Cg 90030. The method in brief: as §1
Series [5] concerns Candida parapsilosis ATCC 22019. Description: Broth microdilution, C. parapsilosis ATCC 22019. Type of series: cell-based. As to conditions: Cp 22019. The method in brief: as §1
The subject of series [6] is Bacillus cereus ATCC 10876. As to the kind of experiment: Broth microdilution, B. cereus ATCC 10876. As to conditions: Bc 10876. Type of series: cell-based. The method in brief:
as §1

Series [7] has as its system Bacillus subtilis ATCC 6633. Description: Broth microdilution, B. subtilis ATCC 6633. Type of series: cell-based. The following applies: Bs 6633. In outline:
as §1

For series [8], the system named is Staphylococcus epidermidis ATCC 12228. As to the kind of experiment: Broth microdilution, S. epidermidis ATCC 12228. Type of series: cell-based. The following applies: Se 12228. In outline:
as §1

For series [9], the system named is Staphylococcus aureus ATCC 6538. Description: Broth microdilution, S. aureus ATCC 6538. Type of series: cell-based. As to conditions: Sa 6538. In outline:
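EUCAST broth microdilution: inoculum 0.5 McFarland, 10-fold diluted; Mueller-Hinton broth (bacteria) or MH + 2% glucose (yeast); twofold dilutions from 1000 µg/mL; 18 ± 2 h at 35 ± 2 °C, A570 read for MIC. MBC/MFC from subculture on MHA or MHA + 2% glc (99.9% kill).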

Another series has as its system Candida auris CDC B11903. As to the kind of experiment: Broth microdilution, C. auris CDC B11903. Type of series: cell-based. The following applies: Ca B11903. The method in brief:
as §1

For series [10], the system named is Candida tropicalis ATCC 1369. As to the kind of experiment: Broth microdilution, C. tropicalis ATCC 1369. As to conditions: Ct 1369. Type of series: cell-based. In outline:
as §1

Series [11] has as its system Candida lusitaniae ATCC 3449. As to the kind of experiment: Broth microdilution, C. lusitaniae ATCC 3449. Type of series: cell-based. The following applies: Cl 3449. In outline:
as §1

For another series, the system named is Candida spp. Description: Broth microdilution, Candida spp. Type of series: cell-based. As to conditions: range over both strains and the listed compounds. The protocol:
The antibacterial activity of the obtained thiosemicarbazides and hydrazide–hydrazones was determined by evaluating their ability to inhibit microbial growth in vitro using the broth microdilution method, according to the guidelines of the European Committee on Antimicrobial Susceptibility Testing (EUCAST). The method involved the preparation of microbial suspensions with a standardized density of 0.5 on the McFarland scale (equivalent to 1.5 × 10^8 colony-forming units/mL for bacteria and […] for fungi). A solution of the test substances was then prepared (initial concentration 1000 µg/mL, diluted in sterile Mueller-Hinton broth for bacteria or Mueller-Hinton with 2% glucose for fungi). The test was carried out in 96-well polystyrene flat-bottom plates (Medlab, Poland) with 100 µL of appropriate sterile microbiological medium in each well. The first wells were filled with 200 µL of the test substance, diluted to the initial concentration, and then double-decreasing dilutions were made under aseptic conditions using an automatic pipette. The final step was the addition of a 10-fold diluted microbial suspension of 2 µL. At the same time, the following controls were included: (a) medium control (100 µL of sterile medium without microorganisms added), (b) microbial viability control, (c) test substance control (dilutions without added micro-organisms), (d) positive control of the drug used in the clinic. The plates thus prepared were incubated for 18 ± 2 h at 35 ± 2 °C under conditions optimal for the growth of the test microorganisms. After incubation, the spectrophotometric absorbance at 570 nm in each well of the plate was read. The aim of this part of the study was to determine two parameters: the minimum inhibitory concentration (MIC) and the minimum bactericidal or fungicidal concentration (MBC/MFC) of the test compound. […] The MBC value was determined by adding 5 µL of the contents of each well of the plate to solid sterile MHA or MHA + 2%glc medium for bacteria and fungi, respectively. The area on the plate where 99.9% inhibition of microbial growth was observed indicated the lethal concentration. In addition, the quotient MBC(MFC)/MIC could be determined to assess the nature of the activity of the test substance. If MBC(MFC)/MIC was <4, the test substance was bactericidal/fungicidal, whereas if MBC(MFC)/MIC was ≥4, it was bacteriostatic/fungistatic. Amoxicillin (Glentham Life Sciences, USA) and nystatin (Glentham Life Sciences, USA) were used as the controls for this assay.
The test was performed either on bacteria, comprising: Gram-positive (Staphylococcus aureus ATCC 25923, Staphylococcus aureus ATCC 6538, Staphylococcus aureus ATCC 43300 methicillin-resistant MRSA, Staphylococcus epidermidis ATCC 12228, Micrococcus luteus ATCC 10240, Bacillus subtilis ATCC 6633, Bacillus cereus ATCC 10876) and Gram-negative (Escherichia coli ATCC 25922, Pseudomonas aeruginosa ATCC 27853, Proteus mirabilis ATCC 12453, Klebsiella pneumoniae ATCC 13883) or yeast (Candida parapsilosis ATCC 22019, Candida glabrata ATCC 90030, Candida krusei ATCC 14243, Candida glabrata ATCC 15126, Candida tropicalis ATCC 1369, Candida auris CDC B11903, Candida lusitaniae ATCC 3449) reference strains from the American Type Culture Collection (ATCC) or the Centers for Disease Control and Prevention (CDC).

The test system of series [12] is Staphylococcus aureus ATCC 25923. Description: Broth microdilution, S. aureus ATCC 25923. Type of series: cell-based. As to conditions: Sa 25923. In outline: as §1
The subject of series [13] is Candida krusei ATCC 14243. As to the kind of experiment: Broth microdilution, C. krusei ATCC 14243. The following applies: Ck 14243. Type of series: cell-based. In outline: as §1
In the next series the test system is HaCaT cells. As to the kind of experiment: MTT assay, HaCaT normal cells. Type of series: cell-based. As to conditions: HaCaT human immortal keratinocyte (normal cells), 24 h, mean SD. The protocol:
(§2) Colon cancer (SW480), breast adenocarcinoma (MDA-MB-231), lung carcinoma (A-549), prostate cancer (PC3), and immortal keratinocyte (HaCaT) cell lines of human origin were acquired from the American Type Culture Collection (ATCC). The recommended culture media and protocols provided by ATCC were as follows: SW480 were cultured in Minimum Essential Medium (MEM), MDA-MB-231, A-549, and HaCaT cells were cultured in Dulbecco’s Modified Eagle Medium (DMEM), while PC3 was cultured in Roswell Park Memorial Institute Medium (RPMI). The culture media were supplemented with 10% fetal bovine serum (FBS), penicillin (100 U/mL), and streptomycin (100 μg/mL). Cells were maintained in a humidified incubator at 37 °C with 5% CO2. Passaging was carried out upon reaching 80–90% confluence using 0.25% trypsin (Gibco Life Technologies, New York, NY, USA) treatment prior to experimentation.
(§3) Cell viability was assessed utilizing the MTT assay, which relies on the conversion of 3-(4,5-dimethylthiazol-2-yl)-2,5-diphenyltetrazolium bromide salt (MTT) to formazan crystals by mitochondrial dehydrogenases in viable cells. Initially, cells were plated in 96-well plates at a density of 1 × 10^4 cells per well and allowed to attach for 24 h at 37 °C in a CO2 incubator. Subsequently, the culture medium was replaced with fresh medium containing various concentrations of the test compounds (ranging from 1 to 100 μM), and cells were further cultured for 24 h at 37 °C in a CO2 incubator. Control wells were left untreated for comparison. After the incubation period, MTT solution (0.5 mg/mL in serum-free medium) was added to each well, followed by a 4-h incubation at 37 °C in a CO2 incubator. The medium was then aspirated, and the formazan crystals were dissolved by adding a mixture of isopropanol and DMSO (1:1). The absorbance of the resulting solution was measured at 570 nm using a UVM 340 reader (ASYS Hitech GmbH, Seekirchen am Wallersee, Austria). IC50 values were determined using GraphPad software (GraphPad Prism 8 Software).

Another series deals with PC3 cells. As to the kind of experiment: MTT assay, PC3 cells. As to conditions: for SI (Selectivity Index): IC50 for normal cell line (HaCaT)/IC50 PC3; for IC50: PC-3, PC3 human metastatic prostate cancer, MTT, 24 h, mean SD. Type of series: cell-based, human. As to the method: as §2, §3
In a further series the test system is SW620 cells. Description: MTT assay, SW620 cells. Type of series: cell-based, human. As to conditions: for SI (Selectivity Index): IC50 for normal cell line (HaCaT)/IC50 SW620; for IC50: SW-620, SW620 human metastatic colon cancer, MTT, 24 h, mean SD.
A further series has as its system MDA-MB-231 cells. As to the kind of experiment: MTT assay, MDA-MB-231 cells. Type of series: cell-based, human. As to conditions: for IC50: MDA-MB-231 human breast adenocarcinoma, MTT, 24 h, mean SD. As to the method:
as §2, §3

In the next series the test system is A-549 cells. Description: MTT assay, A-549 cells. Type of series: cell-based, human. As to conditions: for IC50: A549, A-549 human lung carcinoma, MTT, 24 h, mean SD. The protocol:
as §2, §3

Molecules are shown by their SMILES. Values after ≈ are worked out from the molar mass of the structure shown. Bounds are passed on as bounds.

Regarding `Cn1cc([N+](=O)[O-])nc1C(=O)NNC(=S)Nc1cccc(C(F)(F)F)c1` [Compound 13], the minimal bactericidal concentration (MBC) in [1] is listed as greater than 1000 µg/mL; in [6], greater than 1000 µg/mL; in series [7] it was 500 µg/mL (≈ 1290 µM); in series [8] it was greater than 1000 µg/mL; in series [12], greater than 1000 µg/mL. The minimal inhibitory concentration (MIC) in series [1] was 500 µg/mL (≈ 1290 µM); in series [2] it was greater than 1000 µg/mL; in series [3], greater than 1000 µg/mL; in [4], greater than 1000 µg/mL; in series [5], 500 µg/mL (≈ 1290 µM); in series [6], 1000 µg/mL (≈ 2580 µM). The MIC in series [7] is 500 µg/mL (≈ 1290 µM); in [8], 1000 µg/mL (≈ 2580 µM); in series [9], greater than 1000 µg/mL; against Candida auris CDC B11903, greater than 1000 µg/mL; in series [10] it was greater than 1000 µg/mL; in [11], greater than 1000 µg/mL. Moreover, the results for the MIC in series [12] and in series [13] were 500 µg/mL (≈ 1290 µM) and greater than 1000 µg/mL, respectively. Further, in [5], the minimum fungicidal concentration (MFC) is given as 1000 µg/mL (≈ 2580 µM). In addition, the “MFC/MIC Ratio” value in [5] (<4 fungicidal, ≥4 fungistatic) came out at 2. Further, in series [7] (<4 bactericidal, ≥4 bacteriostatic), the “MBC/MIC Ratio” value came to 1. Further, in the series with Candida spp., the “MBC (range, C. parapsilosis ATCC 22019 and C. tropicalis ATCC 1369)” value lay in the range of 500 to 1000 µg/mL. Moreover, the “MIC (range, C. parapsilosis ATCC 22019 and C. tropicalis ATCC 1369)” value against Candida spp. was 62.5 to 1000 µg/mL.

For the compound `COc1ccc(C=NNC(=O)c2nc([N+](=O)[O-])cn2C)c(O)c1` [Compound 30, N’-[(2-hydroxy-4-methoxyphenyl)methylidene]-1-methyl-4-nitro-1H-imidazole-2-carbohydrazide], the melting point was 214 to 216 °C. Also, the IC50 with HaCaT cells is 97000 ± 5480 nM. Besides, in the series with PC3 cells, the “SI (Selectivity Index)” value was found to be 1.4 and the IC50 amounted to 70200 ± 4200 nM. Moreover, in the series on SW620 cells, the “SI (Selectivity Index)” value is 1.5 and inhibition was half-maximal at 64200 ± 6880 nM (IC50). The compound also had a half-inhibitory concentration (IC50) in the series on MDA-MB-231 cells greater than 100000 nM. Moreover, in the series with A-549 cells, the IC50 is greater than 100000 nM.

Regarding `COc1cccc2c1C(=O)c1c(O)c3c(c(O)c1C2=O)C[C@@](O)(C(=O)CO)C[C@@H]3O[C@H]1C[C@H](N)[C@H](O)[C@H](C)O1` [Doxo-rubicin, doxorubicin], the half-maximal inhibitory concentration (IC50) is 300 ± 100 nM in the series with HaCaT cells; 300 ± 100 nM in the series on PC3 cells; 300 ± 100 nM in the series with SW620 cells; 1600 ± 230 nM with MDA-MB-231 cells; 200 ± 90 nM with A-549 cells. Further, the “SI (Selectivity Index)” value in the series with PC3 cells turned out to be 1; in the series on SW620 cells it was 1.0; in the series on MDA-MB-231 cells (IC50 for normal cell line (HaCaT)/IC50 MDA-MB-231), 0.19; with A-549 cells (IC50 for normal cell line (HaCaT)/IC50 A-549) it was 1.5.

(Values after publication PMC11243693, “Synthesis and Biological Evaluation of New Compounds with Nitroimidazole Moiety” (Molecules, 2024).)
